Legend:
[1] = tested on: NeutrAvidin-specific antibody; experiment: NeutrAvidin-specific antibody titer in sera of mice given biotinylated peptide/NeutrAvidin complex, ELISA (Test Example 12); assay type: in vivo, mouse; details: 5 μg as NeutrAvidin, base of tail Day 0 and Day 10, serum Day 17, IgG
Source text: A biotinylated peptide was synthesized by linking the N-terminus of each of FL4 identified in Test Example 1, a peptide Mut 1 (amino acid sequence: ASYKAIR (SEQ ID NO: 2)) derived from FL4 of which the 1st amino acid residue was substituted by an alanine residue, a peptide Mut 2 (amino acid sequence: VAYKAIR (SEQ ID NO: 3)) derived from FL4 of which the 2nd amino acid residue was substituted by an alanine residue, a peptide Mut 3 (amino acid sequence: VSAKAIR, SEQ ID NO: 43) derived from FL4 of which the 3rd amino acid residue was substituted by an alanine residue, and a peptide Mut 4 (amino acid sequence: VSYKAAR, SEQ ID NO: 44) derived from FL4 of which the […] amino acid residue was substituted by an alanine residue to biotin. Subsequently, a biotinylated peptide/NeutrAvidin complex was produced by mixing each of the obtained biotinylated peptides and NeutrAvidin.
50 μL of physiological saline containing 5 μg of the complex or NeutrAvidin in terms of NeutrAvidin amount was administered into the base of the tail of each 7-week old C57BL/6 mouse on Day 0 and Day 10, and blood was collected on Day 17. As a control, a test was also carried out in the case where only physiological saline was administered in the same manner Meanwhile, in these tests, five mice in each group were used.
Sera were obtained from the blood collected on Day 17 and NeutrAvidin-specific antibody titer (IgG) in the sera was measured by ELISA. In FIG. 18, “NA” refers to the case of administration of NeutrAvidin, and “NA-FL4” refers to the case of administration of the biotinylated FL4/NeutrAvidin complex. Other peptides are shown in the same display format. Further, in FIG. 18, “cont” refers to the case where physiological saline was administered.

EG7 cells = experiment: Tumor size in mice transplanted with EG7 cells (Test Example 9); assay type: in vivo, mouse; details: EG7 tumor bearing C57BL/6 mice, 50 μg as SL8 with 50 μg CpG oligodeoxynucleotide subcutaneously into the ears, compared with physiological saline
Description: In this test, whether the regression effect of cancer was observed by SL8-specific CD8^+ CTLs induced by SL8-FL4 was evaluated. In this test, EG7 cells (cancer cells expressing OVA protein in EL4 cells derived from thymoma of C57BL/6 mouse) were used as cancer cells. Specific test methods are as follows.
1 (10^6 EG7 cells were transplanted into the abdomen of 7-week old C57BL/6 mice to prepare tumor bearing mice. 50 μL of physiological saline containing 50 μg of SL8-FL4 in terms of SL8 amount and 50 μg of CpG oligodeoxynucleotide (K3 type, product name “K3 Et-Free”, product number “CN-65003” manufactured by GeneDesign Inc.) was administered subcutaneously into the ears of mice after EG7 cells were transplanted and the tumor diameter reached about 5 mm (about 5 days after transplantation). Thereafter, tumor size was measured over time while breeding the mice. In addition, similar tests were carried out with regard to the case where 50 μL of physiological saline containing 50 μg SL8 and 50 μg of CpG oligodeoxynucleotide was administered, and the case where only physiological saline was administered (control). Meanwhile, in these tests, five mice in each group were used.

[2] = tested on: antigen-specific CD8^+ CTLs; experiment: Tetramer assay on regional lymph nodes, CD8+ CTL inducibility (Test Example 8); assay type: in vivo, mouse; details: co-administered with CpG oligodeoxynucleotide, 50 μg in terms of SL8 subcutaneously into the ears Day 0, lymph nodes Day 7
Description: A fusion peptide (SL8-FL4) was prepared by linking the N-terminus of the peptide consisting of the amino acid sequence of FL4 to the C-terminus of SL8 (SIINFEKL; SEQ ID NO: 40) which is an MHC class I epitope peptide in chicken ovalbumin (OVA). Specifically, the amino acid sequence of the fusion peptide is [Amino acid sequence of SL8 (SIINFEKL; SEQ ID NO: 40)]-[VSYKAIR; SEQ ID NO: 1]. The production method of the fusion peptide was the same as that of PspA-FL4 except that a DNA molecule encoding SL8 was used. In addition, each of peptide-fusion bodies (SL8-F8 and SL8-FL4Scr) in which the peptide was fused with SL8 was prepared using each of FL8 and the scramble peptide of FL4 (FL4Scr, amino acid sequence: YRSIVKA, SEQ ID NO: 41) in the same manner. […]
The tetramer assay was carried out as follows. Lymphocytes were recovered from the regional lymph nodes, were stained with fluorescently labeled antibodies against CD44 and CD8 and a fluorescently labeled tetramer recognizing the SL8 peptide presented on H-2K^b, then were analyzed using a flow cytometer.

PspA-specific antibodies = experiment: PspA-specific antibody titer in sera of mice given fusion peptide, ELISA (Test Example 2); assay type: in vivo, mouse; details: C57BL/6 mice
Description: 50 μL of physiological saline containing 1 μg of the fusion peptide or PspA in terms of PspA amount was administered into the base of the tail of each of 7-week old C57BL/6J JmsSlc mice (hereinafter sometimes abbreviated as C57BL/6 mice) on Day 0 and Day 10, and blood was collected on Day 17. As a control, a test was also carried out in the case where only physiological saline was administered in the same manner. Further, a test was also carried out in the case where 50 μL of physiological saline containing 10 μg of CpG oligodeoxynucleotide (K3 type, product name “K3 Et-Free”, product number “CN-65003” manufactured by GeneDesign Inc.) in addition to 1 μg of the fusion peptide or PspA in terms of PspA amount was administered in the same manner Meanwhile, in these tests, five mice in each group were used.
Sera were obtained from the blood collected on Day 17 and PspA-specific antibody titers (IgG, IgG1, and IgG2a) in the sera were measured by ELISA. In FIGS. 3 to 5, “PspA WT” refers to PspA, “PspA-FL4” refers to the fusion peptide in which the N-terminus of a peptide obtained by binding three amino acid sequences of FL4 directly and tandemly was linked to the C-terminus of PspA, “PspA WT+CpG” refers to the case where PspA and CpG oligodeoxynucleotide were administered. In addition, in FIGS. 3 to 5, the same meaning applies to the same display format as “PspA-FL4” and “PspA WT+CpG”. […]

Streptococcus pneumoniae = Streptococcus pneumoniae challenge of mice immunized with fusion peptide (Test Example 3); assay type: in vivo
Description: The following test was carried out by using a fusion peptide (FL4-PspA, amino acid sequence: [Amino acid sequence of PspA]-[VSYKAIR; SEQ ID NO: 1]-[VSYKAIR; SEQ ID NO: 1]-[VSYKAIR; SEQ ID NO: 1]) that was prepared in Test Example 2, by linking the N-terminus of a peptide obtained by binding three amino acid sequences of FL4 directly and tandemly to the C-terminus of PspA.
Immunity induction was carried out by administering 50 μL of physiological saline containing 1 μg of FL4-PspA or PspA in terms of PspA amount into the base of the tail of each of 7-week old C57BL/6 mice on Day 0 and Day 10. Then, intranasal administration (one of the nostrils of 15 μL) of Streptococcus pneumoniae (1.7×10^9 cfu/ml: […]) was performed on Day 18, and the body weight and survival rate of each mouse after Streptococcus pneumoniae administration were determined. In addition, as a control, a test was also carried out in the case where only physiological saline was administered in the same manner without conducting immunization. Further, a test was also carried out in the case where 50 μL of physiological saline containing 10 μg of CpG oligodeoxynucleotide (K3 type, product name “K3 Et-Free”, product number “CN-65003” manufactured by GeneDesign Inc.) in addition to 1 μg of FL4-PspA or PspA in terms of PspA amount was administered in the same manner Meanwhile, in these tests, five mice in each group were used.
Meanwhile, in FIG. 6, the day on which Streptococcus pneumoniae was administered is shown as Day 0. In addition, the meanings of the abbreviations in FIG. 6 are as indicated in the column of Test Example 2 above.

[3] = tested on: mouse-derived dendritic cells (FL-DCs); experiment: Binding of phage clones to mouse-derived dendritic cells by flow cytometric analysis (Test Example 1); assay type: cell-based; details: phage clone displaying the peptide, 1.6×10^10 pfu/mL, 1×10^5 mouse-derived dendritic cells, flow cytometry with antibody against the phage
Description: Meanwhile, in the following test examples, unless otherwise indicated, as mouse-derived dendritic cells, dendritic cells (FL-DCs) that were obtained by culturing murine bone marrow cells in the presence of Flt3-L (final concentration 100 ng/ml) for 1 week to induce differentiation were used. In addition, in the following test examples, FL-DCs were analyzed in some cases separately for Plasmacytoid DCs (pDCs), CD11b positive dendritic cells (CD11b^+ DCs), and CD11b negative dendritic cells (CD11b^− DCs). Among the mouse-derived dendritic cells, pDCs is a group of CD11c positive and B220 positive cells; CD11b^+ DCs is a group of CD11c positive, B220 negative and CD11b positive cells among mouse-derived dendritic cells; CD11b^− DCs is a group of CD11c positive, B220 negative, and CD11b negative cells among mouse-derived dendritic cells.
Each of phages recovered by three panning operations was monocloned and amplified. 1×10^5 mouse-derived dendritic cells and 1.6×10^10 pfu/mL of each phage clone were mixed, and then the phage was assayed for the binding to dendritic cells by flow cytometric analysis using an antibody against the phage.
About 60 phage clones obtained were subjected to flow cytometric analysis as described above. As a result, 37 clones shown in Table 1 were identified as clones capable of binding to dendritic cells. […]

[4] = tested on: CD4^+ T cells contained in splenocytes; experiment: Binding of phage clones to CD4+ T cells contained in splenocytes, flow cytometry (Test Example 6); assay type: cell-based, mouse; details: phage clone 1.6×10^10 pfu/mL, 1×10^5 splenocytes
Description: (§1) Specifically, 1×10^5 splenocytes collected from mice and 1.6×10^10 pfu/mL of each phage clone were mixed, and the biotinylated antibody to the phage was added. Further, streptavidin modified with a fluorescent dye was added, and the binding of the phage to splenocytes was evaluated by flow cytometric analysis.

[5] = tested on: dendritic cells contained in splenocytes; experiment: Binding of phage clones to dendritic cells contained in splenocytes, flow cytometry (Test Example 6); assay type: cell-based, mouse; details: phage clone 1.6×10^10 pfu/mL, 1×10^5 splenocytes
Description: as §1

Substance: VSAKAIR (Mut3 peptide) [Mut 3]
- NeutrAvidin-specific antibody production [1]: an excellent antibody-producing ability is recognized unlike the case where each of the amino acid sequences of Mut 3 and Mut 4 is contained

Substance: SIINFEKL [SL8, reference compound]
- tumor regression effects (EG7 cells): some tumor regression effects
- induction of antigen-specific CD8+ CTLs (tetramer assay, regional lymph nodes) [2]: could not be induced

Substance: [Amino acid sequence of PspA]-[VSYKAIR; SEQ ID NO: 1]-[VSYKAIR; SEQ ID NO: 1]-[VSYKAIR; SEQ ID NO: 1] [PspA-FL4]
- production ability of PspA-specific antibodies (PspA-specific antibodies; 1 μg in terms of PspA into base of tail Day 0 and Day 10, serum Day 17, ELISA): remarkably improve
- PspA-specific antibody titer compared with PspA and adjuvant (CpG oligodeoxynucleotide) administered at the same time (PspA-specific antibodies; fusion peptide without adjuvant, serum Day 17): remarkably higher
- body weight after administration of Streptococcus pneumoniae (Streptococcus pneumoniae; C57BL/6 mice immunized Day 0 and Day 10 (1 μg as PspA), intranasal 5.1×10^7 cfu/mouse Day 18): no decrease in body weight was observed
- infection protective ability (Streptococcus pneumoniae; C57BL/6 mice, Streptococcus pneumoniae intranasal challenge): strong infection protective ability
- survival rate (Streptococcus pneumoniae; after 10 days from the administration of Streptococcus pneumoniae, C57BL/6 mice): 100%

Substance: ASYKAIR (Amino acid sequence of motif sequence) [Mut 1]
- NeutrAvidin-specific antibody production [1]: excellent production ability

Substance: VAYKAIR (Amino acid sequence of motif sequence) [Mut 2]
- NeutrAvidin-specific antibody production [1]: excellent production ability

Substance: VSYKAAR (Mut 4 peptide)
- NeutrAvidin-specific antibody production [1]: an excellent antibody-producing ability is recognized unlike the case where each of the amino acid sequences of Mut 3 and Mut 4 is contained

Substance: GGSKPVR (phage display; displayed peptide) [FL8]
- binding of phage clone to dendritic cells [3]: binding to bone marrow-derived dendritic cells was confirmed
- binding of phage clone to CD4+ T cells contained in splenocytes [4]: also bound to CD4^+ T cells contained in splenocytes
- binding of phage clone to dendritic cells contained in splenocytes [5]: bind to all dendritic cells contained in splenocytes

Reference: US11186618B2, “Dendritic-cell-targeted peptide, fusion peptide utilizing said peptide, and vaccine utilizing said fusion peptide” (The Research Foundation for Microbial Diseases of Osaka …, priority 2016, dated 2021)
